From US5292733A, “Cephalosporin compounds” (Lucky Limited, priority 1991, dated 1994)
≈ marks a conversion by molar mass, not a printed value.

How the values were obtained:
Test in all cases: Antibacterial activity MIC, two-fold agar dilution
Format in all cases: cell-based
[1] = test system: Acinetobacter calcoaceticus ATCC 15473; settings: ATCC15473; Acinetobacter calcoaceticus ATCC 15473; Muller-Hinton agar, 37° C., 20 hours; read-out: Antibacterial Activity MIC
Description: (§1) These MIC values were taken by employing a two-fold dilution method: that is, two-fold serial dilutions of each of the test compounds were made and dispersed in a Muller-Hinton agar medium; 2 μl of the standard test strain which had the 10^7 CFU(Colony Forming Unit) per ml was inoculated on the medium; and these were incubated at 37° C. for 20 hours. The results of the MIC tests are shown Table 1.

[2] = test system: Bacillus cereus ATCC 11778; settings: ATCC11778; Bacillus cereus ATCC 11778; Muller-Hinton agar, 37° C., 20 hours; read-out: Antibacterial Activity MIC
Description: as §1

[3] = test system: Bacillus megaterium ATCC 9885; settings: Priestia megaterium, ATCC9885; Bacillus megaterium ATCC 9885; Muller-Hinton agar, 37° C., 20 hours; read-out: Antibacterial Activity MIC
Description: as §1

[4] = test system: Citrobacter freundii ATCC 8090; settings: ATCC8090; Citrobacter freundii ATCC 8090; Muller-Hinton agar, 37° C., 20 hours; read-out: Antibacterial Activity MIC
Description: as §1

[5] = test system: Enterobacter aerogenes ATCC 29751; settings: Klebsiella aerogenes, ATCC29751; Enterobacter aerogenes ATCC 29751; Muller-Hinton agar, 37° C., 20 hours; read-out: Antibacterial Activity MIC
Description: as §1

[6] = test system: Enterobacter cloacae ATCC 27508; settings: ATCC27508; Enterobacter cloacae ATCC 27508; Muller-Hinton agar, 37° C., 20 hours; read-out: Antibacterial Activity MIC
Description: as §1

[7] = test system: Escherichia coli ATCC 10536; settings: ATCC10536, Muller-Hinton agar, 37° C., 20 hours
Description: as §1

[8] = test system: Escherichia coli ATCC 25922; settings: ATCC25922, Muller-Hinton agar, 37° C., 20 hours
Description: as §1

[9] = test system: Klebsiella pneumoniae ATCC 10031; settings: ATCC10031; Klebsiella pneumoniae ATCC 10031; Muller-Hinton agar, 37° C., 20 hours; read-out: Antibacterial Activity MIC
Description: as §1

[10] = test system: Micrococcus luteus ATCC 9341; settings: ATCC9341; Micrococcus luteus ATCC 9341; Muller-Hinton agar, 37° C., 20 hours; read-out: Antibacterial Activity MIC
Description: as §1

[11] = test system: Morganella morganii ATCC 8076h; settings: ATCC8076H, Muller-Hinton agar, 37° C., 20 hours
Description: as §1

[12] = test system: Proteus mirabilis ATCC 25933; settings: ATCC25933; Proteus mirabilis ATCC 25933; Muller-Hinton agar, 37° C., 20 hours; read-out: Antibacterial Activity MIC
Description: as §1

[13] = test system: Proteus vulgaris ATCC 6059; settings: ATCC6059; Proteus vulgaris ATCC 6059; Muller-Hinton agar, 37° C., 20 hours; read-out: Antibacterial Activity MIC
Description: as §1

[14] = test system: Providencia rettgeri ATCC 9250; settings: ATCC9250, Muller-Hinton agar, 37° C., 20 hours
Description: as §1

[15] = test system: Pseudomonas aeruginosa ATCC 10145; settings: ATCC10145; Pseudomonas aeruginosa ATCC 10145; Muller-Hinton agar, 37° C., 20 hours; read-out: Antibacterial Activity MIC
Description: as §1

[16] = test system: Pseudomonas aeruginosa ATCC 25619; settings: ATCC25619; Pseudomonas aeruginosa ATCC 25619; Muller-Hinton agar, 37° C., 20 hours; read-out: Antibacterial Activity MIC
Description: as §1

[17] = test system: Pseudomonas aeruginosa ATCC 27853; settings: ATCC27853; Pseudomonas aeruginosa ATCC 27853; Muller-Hinton agar, 37° C., 20 hours; read-out: Antibacterial Activity MIC
Description: as §1

[18] = test system: Salmonella typhimurium ATCC 14028; settings: Salmonella enterica; Salmonella typhimurium ATCC 14028; Muller-Hinton agar, 37° C., 20 hours; read-out: Antibacterial Activity MIC
Description: as §1

[19] = test system: Serratia marcescens ATCC 27117; settings: ATCC27117; Serratia marcescens ATCC 27117; Muller-Hinton agar, 37° C., 20 hours; read-out: Antibacterial Activity MIC
Description: as §1

[20] = test system: Shigella flexneri ATCC 11836; settings: ATCC11836, Muller-Hinton agar, 37° C., 20 hours
Description: as §1

[21] = test system: Shigella sonnei ATCC 11060; settings: ATCC11060, Muller-Hinton agar, 37° C., 20 hours
Description: as §1

[22] = test system: Staphylococcus aureus ATCC 10537; settings: ATCC10537; Staphylococcus aureus ATCC 10537; Muller-Hinton agar, 37° C., 20 hours; read-out: Antibacterial Activity MIC
Description: as §1

[23] = test system: Staphylococcus aureus ATCC 6538p; settings: ATCC6538P; Staphylococcus aureus ATCC 6538p; Muller-Hinton agar, 37° C., 20 hours; read-out: Antibacterial Activity MIC
Description: as §1

[24] = test system: Staphylococcus epidermidis ATCC 12228; settings: ATCC12228; Staphylococcus epidermidis ATCC 12228; Muller-Hinton agar, 37° C., 20 hours; read-out: Antibacterial Activity MIC
Description: as §1

[25] = test system: Streptococcus faecalis ATCC 29212; settings: Enterococcus faecalis, ATCC29212; Streptococcus faecalis ATCC 29212; Muller-Hinton agar, 37° C., 20 hours; read-out: Antibacterial Activity MIC
Description: as §1

Row | SMILES | MIC [1] [µg/mL] | MIC [2] [µg/mL] | MIC [3] [µg/mL] | MIC [4] [µg/mL] | MIC [5] [µg/mL] | MIC [6] [µg/mL] | MIC [7] [µg/mL] | MIC [8] [µg/mL] | MIC [9] [µg/mL] | MIC [10] [µg/mL] | MIC [11] [µg/mL] | MIC [12] [µg/mL] | MIC [13] [µg/mL] | MIC [14] [µg/mL] | MIC [15] [µg/mL] | MIC [16] [µg/mL] | MIC [17] [µg/mL] | MIC [18] [µg/mL] | MIC [19] [µg/mL] | MIC [20] [µg/mL] | further results
1 | CC[n+]1c(SCC2=C(C(=O)[O-])N3C(=O)[C@@H](NC(=O)/C(=N\OC(C)(C)C(=O)O)c4csc(N)n4)[C@H]3SC2)cc(N)nc1N [Compound I-2, (6R,7R)-7-[(Z)-2-(2-aminothiazol-4-yl)-2-(carboxyprop-2-oxyimino)acetamido]-3-(2,6-diamino-3-ethylpyrimidinium-4-yl)thiomethyl-3-cephem-4-carboxylate] | 4 (≈ 6.27 µM) | 64 (≈ 100 µM) | 0.25 (≈ 0.392 µM) | 0.13 (≈ 0.204 µM) | 1 (≈ 1.57 µM) | 0.016 (≈ 0.0251 µM) | 0.063 (≈ 0.0988 µM) | 0.063 (≈ 0.0988 µM) | 0.031 (≈ 0.0486 µM) | 0.5 (≈ 0.784 µM) | ≤ 0.008 | 0.31 (≈ 0.486 µM) | 0.13 (≈ 0.204 µM) | ≤ 0.008 | 1 (≈ 1.57 µM) | 1 (≈ 1.57 µM) | 1 (≈ 1.57 µM) | 0.5 (≈ 0.784 µM) | 0.13 (≈ 0.204 µM) | 0.031 (≈ 0.0486 µM) | MIC [21]: 0.25 µg/mL (≈ 0.392 µM); MIC [22]: 4 µg/mL (≈ 6.27 µM); MIC [23]: 4 µg/mL (≈ 6.27 µM); MIC [24]: 1 µg/mL (≈ 1.57 µM); MIC [25]: > 128 µg/mL
2 | CO/N=C(\C(=O)N[C@@H]1C(=O)N2C(C(=O)O)=C(COC(C)=O)CS[C@H]12)c1csc(N)n1 [Cefotaxime, reference compound] | 8 (≈ 17.6 µM) | 64 (≈ 141 µM) | 0.063 (≈ 0.138 µM) | 0.063 (≈ 0.138 µM) | 2 (≈ 4.39 µM) | ≤ 0.008 | 0.031 (≈ 0.0681 µM) | 0.031 (≈ 0.0681 µM) | ≤ 0.008 | 0.031 (≈ 0.0681 µM) | ≤ 0.008 | 0.031 (≈ 0.0681 µM) | 0.031 (≈ 0.0681 µM) | ≤ 0.008 | 16 (≈ 35.1 µM) | 1 (≈ 2.2 µM) | 8 (≈ 17.6 µM) | 0.13 (≈ 0.285 µM) | 0.13 (≈ 0.285 µM) | 0.016 (≈ 0.0351 µM) | MIC [21]: 0.063 µg/mL (≈ 0.138 µM); MIC [22]: 1 µg/mL (≈ 2.2 µM); MIC [23]: 4 µg/mL (≈ 8.78 µM); MIC [24]: 1 µg/mL (≈ 2.2 µM); MIC [25]: > 128 µg/mL
3 | C[n+]1c(SCC2=C(C(=O)[O-])N3C(=O)[C@@H](NC(=O)/C(=N\OC(C)(C)C(=O)O)c4csc(N)n4)[C@H]3SC2)cc(N)nc1N [Compound I-1] | 4 (≈ 6.41 µM) | 128 (≈ 205 µM) | 0.25 (≈ 0.401 µM) | 0.13 (≈ 0.208 µM) | 2 (≈ 3.21 µM) | 0.016 (≈ 0.0257 µM) | 0.13 (≈ 0.208 µM) | 0.13 (≈ 0.208 µM) | 0.031 (≈ 0.0497 µM) | 0.5 (≈ 0.802 µM) | ≤ 0.008 | 0.31 (≈ 0.497 µM) | 0.31 (≈ 0.497 µM) | ≤ 0.008 | 2 (≈ 3.21 µM) | 1 (≈ 1.6 µM) | 1 (≈ 1.6 µM) | 0.5 (≈ 0.802 µM) | 0.13 (≈ 0.208 µM) | 0.031 (≈ 0.0497 µM) | MIC [21]: 0.25 µg/mL (≈ 0.401 µM); MIC [22]: 4 µg/mL (≈ 6.41 µM); MIC [23]: 8 µg/mL (≈ 12.8 µM); MIC [24]: 2 µg/mL (≈ 3.21 µM); MIC [25]: > 128 µg/mL
4 | C[n+]1c(N)cc(SCC2=C(C(=O)[O-])N3C(=O)[C@@H](NC(=O)/C(=N\OCC(=O)O)c4csc(N)n4)[C@H]3SC2)nc1N [Compound I-17, (6R,7R)-7-[(Z)-2-(2-aminothiazol-4-yl)-2-(carboxymethoxyimino)acetamido]-3-(2,6-diamino-1-methylpyrimidinium-4-yl)thiomethyl-3-cephem-4-carboxylate] | 16 (≈ 26.9 µM) | > 128 | 0.5 (≈ 0.839 µM) | 0.031 (≈ 0.052 µM) | 1 (≈ 1.68 µM) | 0.016 (≈ 0.0269 µM) | 0.031 (≈ 0.052 µM) | 0.016 (≈ 0.0269 µM) | 0.031 (≈ 0.052 µM) | 1 (≈ 1.68 µM) | ≤ 0.008 | 0.031 (≈ 0.052 µM) | 0.063 (≈ 0.106 µM) | ≤ 0.008 | 4 (≈ 6.72 µM) | 1 (≈ 1.68 µM) | 2 (≈ 3.36 µM) | 0.063 (≈ 0.106 µM) | 0.063 (≈ 0.106 µM) | 0.016 (≈ 0.0269 µM) | MIC [21]: 0.031 µg/mL (≈ 0.052 µM); MIC [22]: 4 µg/mL (≈ 6.72 µM); MIC [23]: 8 µg/mL (≈ 13.4 µM); MIC [24]: 2 µg/mL (≈ 3.36 µM); MIC [25]: > 128 µg/mL
5 | CCO/N=C(\C(=O)N[C@@H]1C(=O)N2C(C(=O)[O-])=C(CSc3cc(N)nc(N)[n+]3C)CS[C@H]12)c1nsc(N)n1 [Compound I-5, (6R,7R)-7-[(Z)-2-(5-amino-1,2,4-thiadiazol-3-yl)-2-(ethoxyimino)acetamido]-3-(2,6-diamino-3-methylpyrimidinium-4-yl)thiomethyl-3-cephem-4-carboxylate] | 8 (≈ 14.1 µM) | 64 (≈ 113 µM) | 0.13 (≈ 0.229 µM) | 0.25 (≈ 0.441 µM) | 0.5 (≈ 0.882 µM) | 0.016 (≈ 0.0282 µM) | 0.13 (≈ 0.229 µM) | 0.13 (≈ 0.229 µM) | 0.016 (≈ 0.0282 µM) | 0.031 (≈ 0.0547 µM) | ≤ 0.008 | 0.061 (≈ 0.108 µM) | 0.031 (≈ 0.0547 µM) | ≤ 0.008 | 32 (≈ 56.5 µM) | 2 (≈ 3.53 µM) | 16 (≈ 28.2 µM) | 0.5 (≈ 0.882 µM) | 0.5 (≈ 0.882 µM) | 0.063 (≈ 0.111 µM) | MIC [21]: 0.25 µg/mL (≈ 0.441 µM); MIC [22]: 1 µg/mL (≈ 1.76 µM); MIC [23]: 2 µg/mL (≈ 3.53 µM); MIC [24]: 0.5 µg/mL (≈ 0.882 µM); MIC [25]: > 128 µg/mL
6 | CC(O/N=C(\C(=O)N[C@@H]1C(=O)N2C(C(=O)[O-])=C(CSc3cc(N)[n+](C)c(N)n3)CS[C@H]12)c1csc(N)n1)C(=O)O (stereo partly drawn) [Compound I-19, (6R,7R)-7-[(Z)-2-(2-aminothiazol-4-yl)-2-(R,S-carboxyeth-1-oxyimino)acetamido]-3-(2,6-diamino-1-methylpyrimidinium-4-yl)thiomethyl-3-cephem-4-carboxylate] | 8 (≈ 13.1 µM) | 128 (≈ 210 µM) | 0.25 (≈ 0.41 µM) | 0.13 (≈ 0.213 µM) | 1 (≈ 1.64 µM) | 0.031 (≈ 0.0508 µM) | 0.13 (≈ 0.213 µM) | 0.13 (≈ 0.213 µM) | 0.063 (≈ 0.103 µM) | 0.5 (≈ 0.82 µM) | ≤ 0.008 | 0.13 (≈ 0.213 µM) | 0.25 (≈ 0.41 µM) | ≤ 0.008 | 4 (≈ 6.56 µM) | 1 (≈ 1.64 µM) | 2 (≈ 3.28 µM) | 0.25 (≈ 0.41 µM) | 0.25 (≈ 0.41 µM) | 0.016 (≈ 0.0262 µM) | MIC [21]: 0.25 µg/mL (≈ 0.41 µM); MIC [22]: 4 µg/mL (≈ 6.56 µM); MIC [23]: 4 µg/mL (≈ 6.56 µM); MIC [24]: 4 µg/mL (≈ 6.56 µM); MIC [25]: 128 µg/mL (≈ 210 µM)
